Non-standard residues stand in square brackets, D forms with d. Residues, ends and D or L forms follow the SMILES beside them. No end group written: not given here.
Columns and labels:
[1] = tested on: Growth Hormone Secretagoge Receptor; experiment: Test cell + FUS1p-lacZ plasmid, GHSR; type: cell-based, sheep; conditions: CY18879, CP6416, saturating or near saturating ligand
Description: (§1) Detection of LacZ activity in the detector cells (data shown in Table 6) was performed essentially as described in the experimental protocol of Example 1, with the exception that 20 microliters of a solution containing 0.5 mM fluorescein di-β-D-galactopyranoside (FDG), 125 mM PIPES pH 7.2, 1.25% Triton X-100 was added instead of the 20 microliters of CPRG solution utilized in Example 1. Following addition of the FDG solution, the reaction was incubated for 30 minutes at 37° C. After stopping the reaction with 20 microliters of 1 M Na2CO3, the fluorescence was determined utilizing a 96-well plate reader with an excitation wavelength of 485 nm and an emission wavelength of 535 nm.

[2] = tested on: Growth Hormone Secretagoge Receptor; experiment: Test cell + detector cell (FDG), GHSR; type: cell-based, sheep; conditions: CY18879, CP6416, saturating or near saturating ligand
Description: (§2) A strain of test cells was established by transforming (transfecting) a culture of S. cerevisiae yeast cells with the human1a (ML1a) receptor gene. Cultures of MATα test cells containing a heterologous ML1a receptor (CY1 3858) and MATa detector cells (a CY19 related strain containing the CP1212 FUS1p-LacZ plasmid) were grown overnight to stationary phase in media selective for the maintenance of the plasmids (SCD-leu media for the MATα cells and SCD-ura for the MATα cells). The cells were diluted with additional medium and permitted to recover from stationary phase for several hours. After determination of the optical density of the cultures, the cells were harvested by centrifugation, were washed once in non-selective synthetic medium, and were resuspended in non-selective medium at an approximate optical density (measured at 600 nm) of 0.4. […] The final volume of cells, culture medium and ligand was about 100 microliters. The cells were mixed using a plate-mixer and incubated at 30° C. […] The reaction was then stopped by the addition of 60 microliters 1 M sodium carbonate, and the absorbance at a wavelength of 575 nm was determined using a plate reader. […]

R-VIP-1 = experiment: Test cell + FUS1p-lacZ plasmid, R-VIP-1; type: cell-based, Rat; conditions: CY18636, CP4110, saturating or near saturating ligand
Description: as §1

R-VIP-1 Rat = experiment: Test cell + detector cell (FDG), R-VIP-1; type: cell-based; conditions: CY18636, CP4110, saturating or near saturating ligand
Description: as §2

melatonin ML1a receptor = molecular target: T1, melatonin ML1a receptor (Homo sapiens, UniProt P48039); experiment: Two cell assay: MATα test cells with ML1a receptor (CY13858) + MATa FUS1p-LacZ detector cells, β-galactosidase (CPRG); type: cell-based
T1 construct: expressed in transfected cells; host or cells: S. cerevisiae MATα test cells (CY13858; CY18596, MFα1-deleted), plasmid CP2695
Excerpt: Binding of cognate ligand to the heterologous receptor in the test cell activates the receptor, causing a signal to be transduced through the pheromone response pathway, ultimately resulting in the secretion of α-factor from the cell. Specific receptors at the surface of the detector cells bind to the secreted α-factor and are activated by it, resulting in the transduction of a signal through the pheromone response pathway in these cells, and activating the transcription of the lacZ gene. The activity of the β-galactosidase expressed from this lacZ gene may be determined and thereby enables a determination of the activity of the pheromone response pathway in the first, test cells.
A strain of test cells was established by transforming (transfecting) a culture of S. cerevisiae yeast cells with the human1a (ML1a) receptor gene. […] After determination of the optical density of the cultures, the cells were harvested by centrifugation, were washed once in non-selective synthetic medium, and were resuspended in non-selective medium at an approximate optical density (measured at 600 nm) of 0.4. […] The reaction was then stopped by the addition of 60 microliters 1 M sodium carbonate, and the absorbance at a wavelength of 575 nm was determined using a plate reader.

ML1a melatonin receptor = molecular target: T2, ML1a melatonin receptor (Homo sapiens, UniProt P48039); experiment: Two cell assay: MFα1-deleted MATα test cells with ML1a receptor (CY18596) + MATa detector cells, β-galactosidase (CPRG); type: cell-based; conditions: MFα1-deleted test cells expressing ML1a receptor
T2 construct: expressed in transfected cells; host or cells: S. cerevisiae MATα test cells (CY13858; CY18596, MFα1-deleted), plasmid CP2695
Description: (§3) Cultures of MATα test cells containing a heterologous ML1a receptor (CY1 3858) and MATa detector cells (a CY19 related strain containing the CP1212 FUS1p-LacZ plasmid) were grown overnight to stationary phase in media selective for the maintenance of the plasmids (SCD-leu media for the MATα cells and SCD-ura for the MATα cells). The cells were diluted with additional medium and permitted to recover from stationary phase for several hours. After determination of the optical density of the cultures, the cells were harvested by centrifugation, were washed once in non-selective synthetic medium, and were resuspended in non-selective medium at an approximate optical density (measured at 600 nm) of 0.4. […] The final volume of cells, culture medium and ligand was about 100 microliters. The cells were mixed using a plate-mixer and incubated at 30° C. […] The reaction was then stopped by the addition of 60 microliters 1 M sodium carbonate, and the absorbance at a wavelength of 575 nm was determined using a plate reader.
Using the experimental protocol described in Example 1, MATα test cells lacking the MFα1 gene and containing a plasmid encoding the ML1a receptor (CY18596) or a mock control plasmid (CY18594) were mixed with an equal number of MATa detector cells having a FUS1-LacZ plasmid. […]

[3] = tested on: MATα test cells lacking the ML1a receptor; experiment: Two cell assay: MFα1-deleted MATα test cells with mock plasmid (CY18594) + MATa detector cells, β-galactosidase (CPRG); type: cell-based, S. cerevisiae; conditions: in the presence of melatonin
Description: as §3

Bradykinin 2 Receptor [4] = molecular target: T3, Bradykinin 2 Receptor (Homo sapiens, UniProt P30411); experiment: Test cell + FUS1p-lacZ plasmid, BK2; type: cell-based; conditions: CY18778, CP1930, saturating or near saturating ligand
T3 construct: expressed in transfected cells; host or cells: S. cerevisiae MATα test cells, plasmid CP1930
T3 sequence (P30411 1-391): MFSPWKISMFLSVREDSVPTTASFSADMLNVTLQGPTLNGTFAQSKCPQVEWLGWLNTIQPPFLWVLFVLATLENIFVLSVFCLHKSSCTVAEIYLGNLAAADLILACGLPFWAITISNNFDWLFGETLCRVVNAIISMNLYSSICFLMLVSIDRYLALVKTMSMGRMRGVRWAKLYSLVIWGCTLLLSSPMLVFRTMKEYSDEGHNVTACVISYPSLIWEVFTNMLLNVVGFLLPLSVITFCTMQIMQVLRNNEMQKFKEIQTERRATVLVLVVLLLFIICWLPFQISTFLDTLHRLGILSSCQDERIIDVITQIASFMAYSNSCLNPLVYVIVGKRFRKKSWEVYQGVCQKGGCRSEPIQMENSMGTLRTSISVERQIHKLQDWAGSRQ
Description: as §1

Bradykinin 2 Receptor [5] = molecular target: T3, Bradykinin 2 Receptor; experiment: Test cell + detector cell (FDG), BK2; type: cell-based; conditions: CY18778, CP1930, saturating or near saturating ligand
Description: as §2

T1 sequence (P48039 whole entry): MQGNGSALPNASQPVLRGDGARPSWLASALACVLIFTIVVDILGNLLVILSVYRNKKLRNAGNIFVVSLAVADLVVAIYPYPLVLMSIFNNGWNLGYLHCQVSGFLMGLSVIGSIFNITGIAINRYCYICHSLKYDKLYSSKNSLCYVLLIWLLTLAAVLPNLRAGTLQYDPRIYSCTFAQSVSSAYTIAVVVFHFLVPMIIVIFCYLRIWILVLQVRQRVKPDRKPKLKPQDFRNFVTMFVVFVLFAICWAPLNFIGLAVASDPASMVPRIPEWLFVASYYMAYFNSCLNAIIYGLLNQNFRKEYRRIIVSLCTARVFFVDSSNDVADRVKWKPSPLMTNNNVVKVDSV
T2 sequence (P48039 whole entry): as above

C[C@H](NC(=O)[C@@H](Cc1c[nH]c2ccccc12)NC(=O)[C@@H](N)Cc1c[nH]cn1)C(=O)N[C@@H](Cc1c[nH]c2ccccc12)C(=O)N[C@H](Cc1ccccc1)C(=O)N[C@@H](CCCCN)C(N)=O [GHRP-6] (H-H[dW]AW[dF]K-NH2)
Fold induction, Test Cell + FUS1p-lacZ plasmid [1]: 9 fold
Fold induction, Test cell + Detector Cell [2]: 4 fold

NC(=O)CC[C@@H]1NC(=O)[C@H](Cc2ccccc2)NC(=O)[C@H](Cc2ccc(O)cc2)NC(=O)[C@@H](N)CSSC[C@@H](C(=O)N2CCC[C@H]2C(=O)N[C@@H](CCCN=C(N)N)C(=O)NCC(N)=O)NC(=O)[C@H](CC(N)=O)NC1=O [Vasopressin]
Fold induction, Test Cell + FUS1p-lacZ plasmid (R-VIP-1): 20 fold
Fold induction, Test cell + Detector Cell (R-VIP-1 Rat): 8 fold

COc1ccc2[nH]cc(CCNC(C)=O)c2c1 [melatonin]
β-galactosidase activity in the detector cells (melatonin ML1a receptor; in the presence of melatonin, no ligand approximately 1.1 units): approximately 1.8 units
induction in β-galactosidase activity (melatonin ML1a receptor; melatonin versus no ligand): approximately 1.6 fold
β-galactosidase activity (ML1a melatonin receptor; in the presence of melatonin): approximately 2.1 units
increase in β-galactosidase activity (ML1a melatonin receptor; melatonin versus no ligand): ~5.2 fold
α-factor secretion by test cells as detected by detector cells [3]: did not secrete any additional α-factor

RPPGFSPFR [Bradykinin]
Fold induction, Test Cell + FUS1p-lacZ plasmid (Bradykinin 2 Receptor [4]): 101 fold
Fold induction, Test cell + Detector Cell (Bradykinin 2 Receptor [5]): 84 fold
